# In PMC7144320, “Antitumor properties of certain spirooxindoles towards hepatocellular carcinoma endowed with antioxidant activity” (Journal of Enzyme Inhibition and Medicinal Chemistry, 2020):
# “And” between values parts separate entries of the source, which are not always exact repeats. Equal entries are not always repeated.
# Assays:
# Bax = experiment: ELISA of apoptotic marker Bax in HepG2 cells; assay type: cell-based; settings: HepG2 treated at IC50 (6.9 µM)
# Method: (§1) The levels of the apoptotic markers caspase-3, caspase-9, p53 and Bax, as well as the anti-apoptotic marker Bcl-2 were evaluated by the use of ELISA colorimetric kits per the manufacturer’s instructions, as reported earlier[28]^,[29]. Furthermore, the pro-apoptotic potential of spirooxindole 6a towards HepG2 cells was assessed using FITC Annexin V Apoptosis Detection Kit by flow cytometry, according to the manufacturer’s protocol and referring to the reported procedures[30]^,[31].
# (§2) The Bax/Bcl-2 ratio is considered as a decisive value that gives a real insight to the overall pro-apoptotic impact of the examined compound.
# caspase-9 = experiment: ELISA of active caspase-9 in HepG2 cells; assay type: cell-based; settings: HepG2 treated at IC50 (6.9 µM)
# Method: as §1
# (§3) The elevated Bax/Bcl-2 ratio aroused the assessment of the expression levels of the pro-apoptotic active caspase-3, caspase-9 and p53 tumour suppressor protein.
# [1] = tested on: HepG2 hepatocellular carcinoma cell line; experiment: MTT anti-proliferative assay, HepG2; assay type: cell-based; settings: Homo sapiens, 48 h of incubation
# Method: (§4) Spirooxindoles 6a–p were evaluated for their anti-proliferative potency towards HepG2 liver cancer and PC-3 prostate cancer cell lines. Both cells lines were cultured as monolayers in DMEM supplemented with 10% foetal bovine serum (FBS), L-glutamine (2 mM), penicillin (100 U/mL) and streptomycin sulphate (100 µg/mL). Then, cells were sub-cultured with trypsine/EDTA solution, counted with haemocytometer and plated onto 96-well plates (5000 cells/well) and left overnight so as to form a semi-confluent monolayer.
# (§5) Spirooxindoles 6a–p were tested for their in vitro anti-HCC activity against HepG2 cell line, and for their anti-prostate cancer activity against PC-3 cell line by the use of MTT reduction assay. The anticancer drug Adriamycin was co-assayed as the positive control.
# caspase-3 = experiment: ELISA of active caspase-3 in HepG2 cells; assay type: cell-based; settings: HepG2 treated at IC50 (6.9 µM)
# Method: as §1, §3
# [2] = tested on: HepG2 hepatocellular carcinoma cell line; experiment: MTT anti-proliferative assay, HepG2; assay type: cell-based; settings: 48 h exposure, phase contrast microscopy
# [3] = tested on: non-tumorigenic human breast MCF-10A cell line; experiment: Cytotoxicity towards non-tumorigenic MCF-10A cells; assay type: cell-based
# [4] = tested on: PC-3 prostate cancer cell line; experiment: MTT anti-proliferative assay, PC-3; assay type: cell-based; settings: 48 h of incubation
# Method: as §4, §5
# [5] = DPPH radical scavenging assay; settings: mean ± SD of three experiments; 30 min, 517 nm
# Method: The antioxidant potential of spirooxindoles 6a–p against DPPH˙ was evaluated as per previously described procedures by Brand-Williams et al.[32]. DPPH solution was prepared by dissolving 0.024 g DPPH in methanol (100 mL). In 96-well plates, × μL sample and 200-x μL DPPH solution were added. The plate was incubated for 30 min at room temperature in the dark, and finally, absorbance was recorded at 517 nm wavelength. Ascorbic acid was used as positive control. The percent radical scavenging potential was calculated for each compound via the following equation: Scavenging effect (%) = {(Absorbance of control − Absorbance of sample)/Absorbance of control} × 100.
# The DPPH (2,2-diphenyl-1-picrylhydrazyl) radical scavenging activity assay is considered as one of the most common and simple methods for measuring the antioxidant ability to trap free radicals. […] Substances that have the potential to act as electron donors result in reduction of this DPPH radical to the corresponding DPPH2 disclosing their antioxidant potential. The principle of the method relies upon measuring the absorbance of the odd electrons of DPPH at 517 nm. The absorbance decreases, in the presence of free radical scavengers, proportional to the decrease of the DPPH radical concentration.
# HepG2 cells [6] = experiment: Annexin V-FITC/PI apoptosis assay; assay type: cell-based; settings: HepG2, 6.9 µM (IC50)
# Method: as §1
# Bcl-2 = experiment: ELISA of anti-apoptotic marker Bcl-2 in HepG2 cells; assay type: cell-based; settings: HepG2 treated at IC50 (6.9 µM)
# Method: as §1, §2
# [7] = Ferric reducing antioxidant power (FRAP); settings: 593 nm, 30 min at 37 °C
# Method: The Benzie and Strain method[33] was adopted to assess the ferric reducing antioxidant power (FRAP) for spirooxindoles 6a–p. Absorbance of mixtures was recorded at 593 nm after incubation for 30 min at 37 °C. FRAP results were expressed as μM Fe^2+ equivalents.
# FRAP assay is a widely used antioxidant assay that uses antioxidant substances as reducing agents in a redox-linked colorimetric reaction, wherein Fe^3+ is reduced to Fe^2+ at acidic pH that results in a formation of a coloured ferrous-probe complex from a colourless ferric-probe complex. In this assay, the electron donation capacity (reflecting the electron transfer ability) of the examined compounds is evaluated.
# In this study, all spirooxindoles 6a–p herein reported were evaluated for their potential FRAP. The results were expressed as µM Fe^2+ equivalents and presented in Table 6, where the higher µM Fe^2+ equivalents value means higher FRAP and subsequently higher antioxidant capacity.
# p53 = experiment: ELISA of p53 in HepG2 cells; assay type: cell-based; settings: HepG2 treated at IC50 (6.9 µM)
# Method: as §1, §3
# HepG2 cells [8] = experiment: Cell cycle analysis (PI staining, flow cytometry); assay type: cell-based; settings: HepG2, 6.9 µM (IC50), 24 h
# Method: The samples were analysed by a flow cytometer (BectonDickinson FACSCalibur, BD, USA) and data were analysed using the CellQuest software (Becton Dickinson).
# The impact of spirooxindole 6a on the normal cell cycle progression was investigated using flow cytometric analysis of the DNA ploidy in HepG2 cells. […] Alteration of the Pre-G phase and arrest of G2-M phase may imply apoptosis as a potential mechanism for 6a-induced cancer cell death.
smiles,measurement,setting,value
N#CC1=C(c2ccccc2)Nc2c(c(-c3cccs3)nn2-c2ccccc2)C12C(=O)Nc1ccccc12 (centres unmarked) [Compound 6a],Bax expression level,Bax,232.2 ng/mL
same,"Bax, folds of control",Bax,5.7 folds of control
same,Bax/Bcl-2 ratio,Bax,92.5
same,"Caspase-9, folds of control",caspase-9,~12.27 folds of control
same,Caspase-9 expression level,caspase-9,26.92 ng/mL
same,IC50,[1],6.9 µM
same,Caspase-3 expression level,caspase-3,475.9 pg/mL
same,Morphological changes of HepG2 cells,[2],"cell rounding, shrinkage and monolayer disruption"
same,IC50,[3],94.6 µM
same,IC50,[4],11.8 µM
same,DPPH radical scavenging IC50,[5],29.76 ± 1.82 µg/mL
same,total increase in apoptosis with respect to control,HepG2 cells [6],about 16.3 folds
same,"late apoptosis (upper right quadrant), annexin-V positive cells",HepG2 cells [6]; control 0.33%,14.14%
same,"early apoptosis (lower right quadrant), annexin-V positive cells",HepG2 cells [6]; control 0.95%,6.76%
same,"Bcl-2, folds of control",Bcl-2,0.57 folds of control
same,Bcl-2 expression level,Bcl-2,2.51 ng/mL
same,down-regulation of Bcl-2 expression compared to control,Bcl-2,~42%
same,"FRAP, µM (Fe^2+ Eq.)",[7],11.98 µM (Fe^2+ Eq.)
same,"p53, folds of control",p53,~10.03 folds of control and ~10 folds of control
same,p53 expression level,p53,774.5 pg/mL
same,decrease of S phase with respect to control,HepG2 cells [8],~0.37 folds
same,increase of G2/M phase related to control,HepG2 cells [8],2.1 folds
same,increase of Pre-G phase related to control,HepG2 cells [8],11.9 folds
